# Measured values taken from ChEMBL document CHEMBL1156533 (2007).
# The source made the active and inactive calls. The rule behind the calls is not given here.
# Key:
# Mus musculus [1] = organism: Mus musculus; experiment: Antiasthmatic effect in ovalbumin-challenged BALB/c mouse assessed as decrease in eosinophil infiltration in bronchoalveolar lavage fluid; type: functional, Lung
# Mus musculus [2] = organism: Mus musculus; experiment: Antiasthmatic effect in ovalbumin-challenged BALB/c mouse assessed as decrease in IL5 level in bronchoalveolar lavage fluid by ELISA; type: functional, Lung
# Mus musculus [3] = organism: Mus musculus; experiment: Antiasthmatic effect in ovalbumin-challenged BALB/c mouse assessed as decrease in IL13 level in bronchoalveolar lavage fluid by ELISA; type: functional, Lung
# [4] = Inhibition of IL5 production in transgenic BALB/c mouse TH2 cells at 500 uM after 48 hrs; type: functional
# [5] = Inhibition of IL13 production in transgenic BALB/c mouse TH2 cells at 500 uM after 48 hrs; type: functional
# [6] = Inhibition of IL10 production in transgenic BALB/c mouse TH2 cells at 500 uM after 48 hrs; type: functional
# [7] = Inhibition of IL4 production in transgenic BALB/c mouse TH2 cells at 500 uM after 48 hrs; type: functional
# Mus musculus [8] = organism: Mus musculus; experiment: Antiasthmatic effect in ovalbumin-challenged BALB/c mouse assessed as decrease in eosinophil infiltration in bronchoalveolar lavage fluid at 100 ug; type: functional, Lung
# Mus musculus [9] = organism: Mus musculus; experiment: Antiasthmatic effect in ovalbumin-challenged BALB/c mouse assessed as decrease in IL5 level in bronchoalveolar lavage fluid at 100 ug by ELISA; type: functional, Lung
# Mus musculus [10] = organism: Mus musculus; experiment: Antiasthmatic effect in ovalbumin-challenged BALB/c mouse assessed as decrease in IL13 level in bronchoalveolar lavage fluid at 100 ug by ELISA; type: functional, Lung
# Mus musculus [11] = organism: Mus musculus; experiment: Antiasthmatic effect in ovalbumin-challenged BALB/c mouse assessed as decrease in eosinophil infiltration in bronchoalveolar lavage fluid at 25 ug; type: functional, Lung
# Mus musculus [12] = organism: Mus musculus; experiment: Antiasthmatic effect in ovalbumin-challenged BALB/c mouse assessed as decrease in IL5 level in bronchoalveolar lavage fluid at 25 ug by ELISA; type: functional, Lung
# Mus musculus [13] = organism: Mus musculus; experiment: Antiasthmatic effect in ovalbumin-challenged BALB/c mouse assessed as decrease in IL13 level in bronchoalveolar lavage fluid at 25 ug by ELISA; type: functional, Lung
# Mus musculus [14] = organism: Mus musculus; experiment: Antiasthmatic effect in ovalbumin-challenged BALB/c mouse assessed as decrease in eosinophil infiltration in bronchoalveolar lavage fluid at 6 ug; type: functional, Lung
# Mus musculus [15] = organism: Mus musculus; experiment: Antiasthmatic effect in ovalbumin-challenged BALB/c mouse assessed as decrease in IL5 level in bronchoalveolar lavage fluid at 6 ug by ELISA; type: functional, Lung
# Mus musculus [16] = organism: Mus musculus; experiment: Antiasthmatic effect in ovalbumin-challenged BALB/c mouse assessed as decrease in IL13 level in bronchoalveolar lavage fluid at 6 ug by ELISA; type: functional, Lung
# Mus musculus [17] = experiment: Antiasthmatic effect in ovalbumin-challenged transgenic TH2 cells transfected SCID mouse assessed as decrease in eosinophil infiltration in bronchoalveolar lavage fluid at 100 ug administered 4-6 hrs after challenge; type: functional, Lung
# Mus musculus [18] = experiment: Antiasthmatic effect in ovalbumin-challenged transgenic TH2 cells transfected SCID mouse assessed as decrease in IL5 level in bronchoalveolar lavage fluid at 100 ug administered 4-6 hrs after challenge by ELISA; type: functional, Lung
# Mus musculus [19] = experiment: Antiasthmatic effect in ovalbumin-challenged transgenic TH2 cells transfected SCID mouse assessed as decrease in IL13 level in bronchoalveolar lavage fluid at 100 ug administered 4-6 hrs after challenge by ELISA; type: functional, Lung
# TH2 [20] = experiment: Induction of apoptosis in ovalbumin-challenged transgenic BALB/c mouse TH2 cells transfected in SCID mouse assessed as decrease in viable cell in lungs; type: functional, cell-based
# Mus musculus [21] = experiment: Antiasthmatic activity in ovalbumin-challenged BALB/c mouse assessed as reduction in airway resistance at 100 ug, intratracheally administered 4 hrs after challenge; type: functional, organism-based
# Mus musculus [22] = organism: Mus musculus; experiment: Antiasthmatic effect in ovalbumin-challenged BALB/c mouse assessed as decrease in peribronchial eosinophil infiltration in bronchoalveolar lavage fluid; type: functional, organism-based; conditions: Lung
# Mus musculus [23] = organism: Mus musculus; experiment: Antiasthmatic effect in ovalbumin-challenged BALB/c mouse assessed as decrease in perivascular eosinophil infiltration in bronchoalveolar lavage fluid; type: functional, organism-based; conditions: Lung
# [24] = Inhibition of IL4 production in transgenic BALB/c mouse TH2 cells at 100 uM after 48 hrs; type: functional
# [25] = Inhibition of IL4 production in transgenic BALB/c mouse TH2 cells at 50 uM after 48 hrs; type: functional
# [26] = Inhibition of IL4 production in transgenic BALB/c mouse TH2 cells at 10 uM after 48 hrs; type: functional
# [27] = Inhibition of IL5 production in transgenic BALB/c mouse TH2 cells at 100 uM after 48 hrs; type: functional
# [28] = Inhibition of IL5 production in transgenic BALB/c mouse TH2 cells at 50 uM after 48 hrs; type: functional
# [29] = Inhibition of IL5 production in transgenic BALB/c mouse TH2 cells at 10 uM after 48 hrs; type: functional
# [30] = Inhibition of IL13 production in transgenic BALB/c mouse TH2 cells at 100 uM after 48 hrs; type: functional
# [31] = Inhibition of IL13 production in transgenic BALB/c mouse TH2 cells at 50 uM after 48 hrs; type: functional
# [32] = Inhibition of IL13 production in transgenic BALB/c mouse TH2 cells at 10 uM after 48 hrs; type: functional
# [33] = Inhibition of IL10 production in transgenic BALB/c mouse TH2 cells at 100 uM after 48 hrs; type: functional
# [34] = Inhibition of IL10 production in transgenic BALB/c mouse TH2 cells at 50 uM after 48 hrs; type: functional
# [35] = Inhibition of IL10 production in transgenic BALB/c mouse TH2 cells at 10 uM after 48 hrs; type: functional
# TH2 [36] = experiment: Antiproliferative activity in transgenic BALB/c mouse TH2 cells assessed as [3H]thymidine incorporation after […]; type: functional, cell-based
# TH2 [37] = experiment: Induction of apoptosis in transgenic BALB/c mouse TH2 cells after 48 hrs by FACS; type: functional, cell-based
# Jurkat [38] = experiment: Induction of apoptosis in human Jurkat cells after 48 hrs by FACS; type: functional, cell-based
# Dendritic cell = experiment: Induction of apoptosis in LPS-stimulated BALB/c mouse bone marrow-derived dendritic cells after 48 hrs by ELISA; type: functional, cell-based
# Mus musculus [39] = experiment: Antiasthmatic activity in ovalbumin-challenged BALB/c mouse assessed as reduction in airway hyperresponsiveness at 100 ug, intratracheally administered 4 hrs after challenge; type: functional, organism-based
# TH2 [40] = experiment: Inhibition of TCR-mediated NF-kappaB activation in transgenic BALB/c mouse TH2 cells at 100 uM by EMSA; type: cell-based
# TH2 [41] = experiment: Inhibition of TCR-mediated JNK1 activation in transgenic BALB/c mouse TH2 cells at 100 uM by in vitro kinase assay; type: cell-based
# TH2 [42] = experiment: Inhibition of TCR-mediated ERK activation in transgenic BALB/c mouse TH2 cells at 100 uM by Western blotting; type: cell-based
# TH2 [43] = experiment: Inhibition of TCR-mediated NFAT activation in transgenic BALB/c mouse TH2 cells at 100 uM by Western blotting; type: cell-based
# Jurkat [44] = experiment: Inhibition of TCR-mediated NF-kappaB activation in human Jurkat cells at 100 uM by EMSA; type: cell-based
# Jurkat [45] = experiment: Inhibition of TCR-mediated JNK1 activation in human Jurkat cells at 100 uM by in vitro kinase assay; type: cell-based
# Jurkat [46] = experiment: Inhibition of TCR-mediated ERK activation in human Jurkat cells at 100 uM by Western blotting; type: cell-based
# Jurkat [47] = experiment: Inhibition of TCR-mediated NFAT activation in human Jurkat cells at 100 uM by Western blotting; type: cell-based
# Jurkat [48] = experiment: Inhibition of TCR-mediated IkappaB degradation in human Jurkat cells after 30 mins by immunoblotting; type: cell-based
# HEK293 [49] = experiment: Inhibition of PKC-theta-induced NF-kappaB activation in HEK293 cells by luciferase reporter gene assay; type: functional, cell-based; conditions: Homo sapiens
# HEK293 [50] = experiment: Inhibition of Carma1-induced NF-kappaB activation in HEK293 cells by luciferase reporter gene assay; type: functional, cell-based; conditions: Homo sapiens
# HEK293 [51] = experiment: Inhibition of Bcl10-induced NF-kappaB activation in HEK293 cells by luciferase reporter gene assay; type: functional, cell-based; conditions: Homo sapiens
# [52] = target: T-cell-specific surface glycoprotein CD28 (Homo sapiens) (UniProt P10747); experiment: Inhibition of CD28-induced NF-kappaB activation in human Jurkat cells by EMSA; type: functional, cell-based
# T-cell-specific surface glycoprotein CD28 (Homo sapiens), sequence (P10747 whole entry): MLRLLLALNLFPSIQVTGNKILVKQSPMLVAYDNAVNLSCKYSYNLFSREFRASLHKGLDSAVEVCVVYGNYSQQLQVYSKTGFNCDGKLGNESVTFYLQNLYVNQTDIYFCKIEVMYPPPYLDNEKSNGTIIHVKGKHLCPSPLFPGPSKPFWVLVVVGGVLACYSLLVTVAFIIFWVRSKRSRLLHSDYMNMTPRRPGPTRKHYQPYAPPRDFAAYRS
# Jurkat [53] = experiment: Inhibition of CD3/CD28-induced NF-kappaB activation in human Jurkat cells by EMSA; type: cell-based
# [54] = Inhibition of IFN-gamma production in transgenic TH1 cells at 500 uM after 48 hrs; type: functional
# [55] = Inhibition of IFN-gamma production in transgenic TH1 cells at 100 uM after 48 hrs; type: functional
# [56] = Inhibition of IFN-gamma production in transgenic TH1 cells at 50 uM after 48 hrs; type: functional
# [57] = Inhibition of IFN-gamma production in transgenic TH1 cells at 10 uM after 48 hrs; type: functional
# TH1 = experiment: Induction of apoptosis in transgenic TH1 cells after 48 hrs by FACS; type: functional, cell-based
# [58] = target: 3-phosphoinositide-dependent protein kinase 1 (Homo sapiens) (UniProt O15530); experiment: Inhibition of recombinant PDK1 autophosphorylation by in vitro kinase assay
# 3-phosphoinositide-dependent protein kinase 1 (Homo sapiens), sequence (O15530 whole entry, looked up): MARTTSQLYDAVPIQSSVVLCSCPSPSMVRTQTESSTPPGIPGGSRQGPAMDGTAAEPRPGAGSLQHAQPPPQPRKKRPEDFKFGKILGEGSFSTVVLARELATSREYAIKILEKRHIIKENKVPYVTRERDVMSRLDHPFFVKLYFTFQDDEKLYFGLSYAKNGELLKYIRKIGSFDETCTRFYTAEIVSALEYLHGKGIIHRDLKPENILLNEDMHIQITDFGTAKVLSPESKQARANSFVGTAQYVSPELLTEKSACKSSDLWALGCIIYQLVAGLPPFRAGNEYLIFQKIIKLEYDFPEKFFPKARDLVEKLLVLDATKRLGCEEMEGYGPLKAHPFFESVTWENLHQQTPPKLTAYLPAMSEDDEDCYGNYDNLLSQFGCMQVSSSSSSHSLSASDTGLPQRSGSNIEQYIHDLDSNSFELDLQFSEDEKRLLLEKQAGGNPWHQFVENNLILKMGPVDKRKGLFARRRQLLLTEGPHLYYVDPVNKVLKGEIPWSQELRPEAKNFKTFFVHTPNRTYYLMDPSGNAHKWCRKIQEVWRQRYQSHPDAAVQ
# [59] = target: 3-phosphoinositide-dependent protein kinase 1 (Homo sapiens) (UniProt O15530); experiment: Inhibition of PDK1 phosphorylation in human Jurkat cells by Western blotting
compound,measurement,setting,value
O=C(O)c1cccnc1C(=O)O [QUINOLINIC ACID],Activity,Mus musculus [1],335000
same,Activity,Mus musculus [2],312 pg/mL
same,Activity,Mus musculus [3],263 pg/mL
same,Activity,[4],4.19 ng/mL
same,Activity,[5],15.4 ng/mL
same,Activity,[6],8.36 ng/mL
same,Activity,[7],11.3 ng/mL
Nc1c(O)cccc1C(=O)O,Activity,Mus musculus [8],84000
same,Activity,Mus musculus [9],153 pg/mL
same,Activity,Mus musculus [10],88 pg/mL
same,Activity,Mus musculus [11],58000
same,Activity,Mus musculus [12],144 pg/mL
same,Activity,Mus musculus [13],91 pg/mL
same,Activity,Mus musculus [14],190000
same,Activity,Mus musculus [15],219 pg/mL
same,Activity,Mus musculus [16],147 pg/mL
same,Activity,Mus musculus [17],11000
same,Activity,Mus musculus [18],<10 pg/mL
same,Activity,Mus musculus [19],<10 pg/mL
same,Activity,TH2 [20],Active
same,Activity,Mus musculus [21],Active
same,Activity,Mus musculus [1],155000
same,Activity,Mus musculus [2],141 pg/mL
same,Activity,Mus musculus [3],66 pg/mL
same,Activity,Mus musculus [22],Active
same,Activity,Mus musculus [23],Active
same,Activity,[24],2 ng/mL
same,Activity,[25],6.7 ng/mL
same,Activity,[26],11.5 ng/mL
same,Activity,[27],<0.1 ng/mL
same,Activity,[28],1.15 ng/mL
same,Activity,[29],3.24 ng/mL
same,Activity,[30],1.7 ng/mL
same,Activity,[31],4.3 ng/mL
same,Activity,[32],14.9 ng/mL
same,Activity,[33],2.37 ng/mL
same,Activity,[34],4.88 ng/mL
same,Activity,[35],7.77 ng/mL
same,Activity,TH2 [36],Active
same,Activity,TH2 [37],Active
same,Activity,Jurkat [38],Active
same,Activity,Dendritic cell,inactive
same,Activity,Mus musculus [39],Active
same,Activity,TH2 [40],Active
same,Activity,TH2 [41],inactive
same,Activity,TH2 [42],inactive
same,Activity,TH2 [43],inactive
same,Activity,Jurkat [44],Active
same,Activity,Jurkat [45],inactive
same,Activity,Jurkat [46],inactive
same,Activity,Jurkat [47],inactive
same,Activity,Jurkat [48],inactive
same,Activity,HEK293 [49],inactive
same,Activity,HEK293 [50],inactive
same,Activity,HEK293 [51],inactive
same,Activity,[52],Active
same,Activity,Jurkat [53],Active
same,Activity,[54],1.7 ng/mL
same,Activity,[55],1.8 ng/mL
same,Activity,[56],1 ng/mL
same,Activity,[57],29.7 ng/mL
same,Activity,TH1,Active
same,Activity,[58],Dose-dependent effect
same,Activity,[59],Active
